In patent publication US11607404B2, “Combinations of RAD51 and PARP inhibitors” (Cyteir Therapeutics, Inc., priority 2019, dated 2023):

Assays:
[1] = tested on: Daudi cell line (AID positive); test: Primary screening cell killing assay (Cell-Titer Glo, Day 7); type: cell-based; conditions: Homo sapiens, 168 h; Daudi cells (AID positive), cell death on Day 7; read-out: AID+ EC50
Method: Primary screening was a phenotypic screen that utilized the synthetic lethal interaction between AID and RAD51 to identify compounds that were both potent and on target. AID expressing cells are dependent upon RAD51 for survival; inhibiting RAD51 in AID positive cells results in a cytotoxic effect.
(§1) The first step was to set up a cell killing assay in the Daudi cell line (AID positive). A 96 well u-bottom plate was prepared by writing the experiment number, plate number, date and initials in the top right corner of the plate lid. With a sterile 300 ml reservoir, and 25 ml serological pipette, evaporation buffer media was pipetted into reservoir in 25 ml increments. Using the liquid handler, 150 ul of evaporation buffer media was pipetted from reservoir into rows A and H, and Columns 1 and 12 of the 96 well u-bottom plate. Cell cultures were counted to obtain the density of cells per ml, and the culture viability. The cell density information was used to obtain 1,000,000 cells from culture using a 5 mL serological pipette into an epi tube. The cell density information from the culture was used to calculate the number of cells and volume of media needed for the assay to seed 1250 cells in 130 ul of media per available culture well in the 96 well u-bottom plate. Rows B through F were used for cells (50 wells in total), with row G left for an empty media control. The calculation was overestimated by 10 mL to account for the dead volume in the 300 ml reservoir. Once the media volume was calculated, the appropriate volume of media was pipetted in 25 mL increments into the 250 mL bottle using a 25 mL serological pipette. The 250 ml bottle was capped tightly, and placed into a 37° C. water bath for 2 minutes. While the culture media was warming, 10 mL of fresh media was pipetted from the 500 mL culture media bottle into a sterile 25 mL reservoir. Using the Eppendorf multichannel pipette, 130 ul of media was piptted from the 25 mL reservoir into row G of the 96 well u-bottom plate. Once the 250 mL bottle of media was warmed, the volume of culture needed was pipetted into the bottle, and mixed gently with a 25 mL serological pipette as to not create bubbles, and then the contents of the bottle were pipetted into a new 300 mL reservoir. Using the liquid handler, 130 ul of culture was pipetted from the 300 mL reservoir into rows B through F of the 96 well u-bottom plate. Once the culture was added, the plate was placed into a 37° C. incubator until the compound master plate was prepared for use.
(§2) Two 96 well u-bottom plates were prepared by writing the master plate name in the upper right corner of the plate lid. Labeling one DMSO master and the other Media Master. The compounds of interest were obtained from the laboratory freezer, and placed into a 25 well storage box with a lid, and set the box aside. The compounds were vortexed after thawing but before use. Using an automatic multichannel pipette, 20 ul of 100% DMSO was pipetted into wells B3-B11 through G3-G11 of the DMSO master plate. For each compound on the master plate, 50 ul of the compound were pipetted in the appropriate well of row 2 (reference plate map to determine appropriate well). A serial dilution was prepared beginning by aspirating 20 ul from row 2 and mixing with row 3, repeating until row 11 was reached. Using the liquid handler, 194 ul of Daudi media was dispensed into wells B2-B11 through G2-G11 of the Media master plate. Using the liquid handler, 6 ul from the DMSO master plate was aspirated and dispensed into the media master plate, mixing 100 ul twice.
Compounds from master plate were then added to the culture plate. The culture plates were removed from the incubator, and set inside the biosafety cabinet. Using a liquid handler, 20 ul from wells B2 to B11 through G2 to G11 of master plate were aspirated, and dispensed into wells B2 to B11 through G2 to G11 of culture plate. This set was continued with each culture plate. […]

[2] = tested on: ARPE19/HPV16 (HPV Immortalized RPE); test: Cell line screen (potency assay); type: cell-based; conditions: ARPE-19, AICDA expression Negative
Method: as §1, §2
Compounds from master plate were then added to the culture plate. The culture plates were removed from the incubator, and set inside the biosafety cabinet. Using a liquid handler, 20 ul from wells B2 to B11 through G2 to G11 of master plate were aspirated, and dispensed into wells B2 to B11 through G2 to G11 of culture plate. This set was continued with each culture plate. Once the culture plates acquired their 20 ul of compound dilutions, they were placed back into the incubator, until their reads on Day 7 of experiment. Cell death was measured on Day 7 of the experiment using Cell-Titer Glo and a Promega Plate reader. […]

[3] = Pharmacokinetic (PK) study; type: in vivo, Rat; conditions: po @ 80 mg/kg (30% PEG400, 10% Vitamin E TPGS in water)
Method: PK studies in mice were used to determine the fate of the compounds in a whole organism. Rats were treated with the compounds either orally of via IV at the indicated doses and followed for up to 24 hours. Plasma samples were taken at different time points and analyzed by LC-MS.

HBCx11 model = test: Tumor growth inhibition, subcutaneous engrafted tumor model; type: in vivo, mice; conditions: HRD Positive, RAD51 High, BRCA1 Mut, PALB2 WT, 67A 80 mg/kg QD, olaparib 100 mg/kg QD, combo both
Method: (§3) Immunodeficient mice were subcutaneously engrafted in the rear flank with the tumor cells. The tumors were allowed to grow to a size of about 100 to about 200 mm^3 prior to being randomized and grouped into treatment arms. For models […] through […] the four treatment arms were vehicle, Compound 67A at 80 mg/kg QD, olaparib at 100 mg/kg QD, and Compound 67A+Olaparib at 80 mg/kg QD and 100 mg/kg QD, respectively. For models J000101173 through TM00091 the treatment arms were vehicle, Compound 67A at 40 mg/kg QD, olaparib at 50 mg/kg QD, and Compound 67A+Olaparib at 40 mg/kg QD and 50 mg/kg QD, respectively. The tumors were measured either once weekly or twice weekly.
(§4) Percent Tumor Growth Inhibition (% TGI) was calculated by taking the mean volume of each of the treatment arms, and comparing the treatment arms to the vehicle arms using the following equation

HBCx16 model = test: as above; type: in vivo, mice; conditions: HRD Positive, RAD51 High, BRCA1 Meth, PALB2 WT, 67A 80 mg/kg QD, olaparib 100 mg/kg QD, combo both
Method: as §3, §4

HBCx17 model = test: as above; type: in vivo, mice; conditions: HRD Positive, RAD51 High, BRCA2 Mut, PALB2 WT, 67A 80 mg/kg QD, olaparib 100 mg/kg QD, combo both
Method: as §3, §4

TM00091 model = test: as above; type: in vivo, mice; conditions: HRD Positive, RAD51 High, BRCA1 Mut, PALB2 WT, 67A 40 mg/kg QD, olaparib 50 mg/kg QD, combo both
Method: as §3, §4

TM00096 model = test: as above; type: in vivo, mice; conditions: HRD Positive, RAD51 Low, BRCA WT, PALB2 WT, 67A 40 mg/kg QD, olaparib 50 mg/kg QD, combo both
Method: as §3, §4

**Q.** Which EC50 [1] does the source give for `CC(C)OC(=O)Nc1ccc(-c2cnc([C@H]3CC[C@H](NC(=O)OC(C)C)CC3)s2)c(S(=O)(=O)NC(C)(C)C)c1` [Compound 67A, trans-isopropylN-[3-(tert-butylsulfamoyl)-4-[2-[4-(isopropoxycarbonylamino)cyclohexyl]thiazol-5-yl]phenyl]carbamate] here?
**A.** ≤ 1 µM

**Q.** What about the EC50 [2] of the same compound?
**A.** > 10 µM

**Q.** What about the “F (%) @ 5 mg/kg” value ([3]; Rat Female) of the same compound?
**A.** 86.5%

**Q.** What about the “F (%) @ 5 mg/kg” value ([3]; Rat Male) of the same compound?
**A.** 46.9%

**Q.** What about the “% TGI” value (HBCx11 model) of the same compound?
**A.** 23.39%

**Q.** And the “% TGI” value (HBCx16 model)?
**A.** −22.45%

**Q.** What about the “% TGI” value (HBCx17 model) of the same compound?
**A.** −51.13%

**Q.** What about the “% TGI” value (TM00091 model) of the same compound?
**A.** 27%

**Q.** What about the “% TGI” value (TM00096 model) of the same compound?
**A.** −25.4%
